pIC50: −log10 of the molar value.
Experiments:
Nav1.8 ion channel = Nav1.8 ion channel (Homo sapiens (Human), UniProt Q9Y5Y9); assay: Inhibitory activity on Nav1.8 ion channel, whole-cell patch-clamp on HEK293/Nav1.8; type: cell-based; details: HEK293/Nav1.8, whole-cell patch clamp, holding -80 mV, 1 μM TTX
Method: Reagents were purchased from Sigma (St. Louis, MO) except NaOH and KOH for acid-base titration. The final concentrations of the test compounds were all prepared on the day of the test and then dissolved in an extracellular fluid. The extracellular fluid (mM) was NaCl, 137; KCl, 4; CaCl2), 1.8; MgCl2, 1; HEPES, 10; glucose 10; and pH 7.4 (NaOH titration). All test and control compound solutions contained 1 μM TTX. The intracellular fluid (mM) was: aspartic acid, 140; magnesium chloride, 2; ethylene glycol tetraacetic acid (EGTA), 11; and N-2-hydroxyethylpiperazine-N′-2-ethanesulfonic acid (HEPES), 10. The pH was adjusted to 7.4 with cesium hydroxide.
The test compounds were dissolved in dimethylsulfoxide (DMSO) at a concentration of 9 mM. On the day of the test, the compounds were then dissolved in the extracellular fluid and prepared into the required concentration.
The cells were transferred to a perfusion chamber and perfusion was carried out using the extracellular fluid. The intracellular fluid was thawed on the day of the experiment. The electrodes were produced by pulling with PC-10 (Narishige, Japan). Whole-cell patch-clamp recording was carried out. Noise was filtered at one fifth of the sampling frequency. The intracellular fluid with ¼ length of the electrode tube was added into the electrode, and the electrode was installed on a probe. The required Protocol was set, the interface was adjusted to Membrane test, and Stage was adjusted to Bath. A positive pressure was applied in the electrode. The tip of the electrode was contacted with the cell. The three-way valve of the air extractor was adjusted to a three-way state. A negative pressure was then applied to the electrode, so that the electrode and the cell formed a high-resistance seal. Stage was adjusted to Patch, and leak was controlled within −200 pA. A negative pressure was successively applied, so that cell membranes were broken, and a current path was formed. Perfusion was carried out by opening the suction filtration device and the extracellular fluid valve. The cell current was observed, and administration was started when the cell current was stable (at least 3 sweep current curves were overlapped). Administration was performed from low concentration to high concentration. The administration time of each concentration was not less than 2 min, and when the current was stable, the concentration was changed for administration.
For administration of the test samples, perfusion was carried out using a perfusion system utilizing the self gravity. […] During the period, the CV % of all peak current amplitudes should be less than 10% to exclude up and down fluctuations of the initial current. The average of the peak current amplitudes recorded for the last 10 times during the initial recording served as the current peak of the negative control. After the initial current was stable, the test samples were dosed starting from a low concentration until the 10 recorded peak currents were again stable or the peak currents were “constant” after and before administration after continuous administration for 5 min. We defined the following two cases as “stable” or “constant”: 1) if the absolute average of the peak current for 10 consecutive scans exceeded 200 pA and the CV value was less than 10%, 2) or the average of the peak current for 10 consecutive scans was between 200 pA and 50 pA and the CV value was less than 30%. The next detection of higher concentration was then given.
The average of the peak current of the last 10 scans of each concentration was taken as the peak current for that concentration for data analysis. If the stable state was not reached within 5 min, the peak current average of the last 10 scans at that time was used for data analysis as the peak current for that concentration. At the same time, the cells were discarded and no longer used for detection of higher concentration. At least two cells were tested per concentration of the compounds. […]

[1] = Pharmacokinetic assay in mice; type: in vivo; details: male, ICR, mouse, plasma, oral intragastric administration, 10 mg/kg
Method: Pharmacokinetic assay in mice was performed, wherein the mice used were 3 male ICR mice and fasted overnight. The mice were orally intragastrically dosed with the medicament (10 mg/kg). Blood was collected before administration and at 15 min, 30 min and 1 h, 2 h, 4 h, 6 h, 8 h, and 24 h after administration. Blood samples were centrifuged at 8000 rpm for 6 min at 4° C., and plasma was collected and stored at −20° C. The plasma at each time point was taken, and 3-5 times its amount of an acetonitrile solution containing an internal standard was added for mixing. The mixture was vortexed for 1 min and then centrifuged at 13000 rpm at 4° C. for 10 min. The supernatant was taken, and 3 times its amount of water was added for mixing. A proper amount of the resulting mixture was taken for LC-MS/MS analysis. The major pharmacokinetic parameters were analyzed using a non-compartmental model in the WinNonlin 7.0 software.

[2] = system: spinal nerve-ligated rats; assay: Spinal nerve ligation neuropathic pain model in rats (Von-Frey mechanical pain threshold); type: in vivo, male SD rat; details: SNL rats; for Mechanical pain threshold (Mean ± SD), base value before modeling: baseline before modeling
Source text: A male SD rat weighing 180-220 g was placed on an operating table in a prone position after anesthesia. An incision was made along the spinal column near the hip bone of the animal, and the fascia and muscle were separated. The L5 transverse process was carefully snapped off with a tweezer. The L5 nerve was separated with a glass needle, and the L5 nerve was ligated with 5-0 ligature. The muscle and the skin were sutured and disinfected with iodophor. After 14 days of modeling, the animals were divided into different groups, 10 animals each group. Different compounds were separately orally administered intragastrically. Mechanical pain thresholds of the animals were detected with Von-Frey fiber filaments at different time points after administration. The specific administration dose and detection time are detailed in Table 3 below.
(§1) The mechanical pain threshold detection method: The pelma of the hind limb to be tested of the test animal was continuously stimulated using the Von-Frey fiber filament to bend the fiber filament, and the foot shrinking reaction of the animal was observed. The tested animals were stimulated one by one according to the sequence of the gram number of the fiber filaments from small to large, and each gram number of the fiber filament was continuously used for stimulation for 5 times. If less than 3 positive reactions were present, the procedure described above was repeated using a larger grade of fiber filament, and if 3 or more positive reactions were present for the first time in the test, the fiber filament was the pain threshold for that animal (3 tests per animal for the average). Fiber filament gram number: 0.6, 1.0, 1.4, 2.0, 4.0, 6.0, 8.0, 10.0, and 15.0; the cut value was 15.0 g.

incision pain model rats = assay: Incision pain model in rats (Von-Frey mechanical pain threshold); type: in vivo, male SD rat; details: for Mechanical pain threshold (Mean ± SD), base value before modeling: baseline before modeling
Method: A male SD rat weighing 200-250 g was fixed in a prone position after anesthesia. The lateral hind limb sole of the rat was flattened upwards, and the toes were fixed using an operation adhesive tape. Sterilization was performed. A 0.5 cm position of the plantar heel of the animal was incised with a scalpel towards the toe end to incise the fascia and the skin to make a longitudinal incision of about 1 cm. After the flexor digitorum brevis was lifted by the surgical forceps, the abdomen of the muscle was longitudinally incised with a scalpel without completely cutting off the muscle. The skin was sutured and disinfected. On the second day of modeling, the animals were divided into different groups, 8 animals each group. Different compounds were separately orally administered intragastrically. Mechanical pain thresholds of the animals were detected with Von-Frey fiber filaments at different time points after administration. The specific grouping administration dose and detection time are detailed in Table 4 below.
as §1

O=C(Nc1cnc[n+]([O-])c1)c1cc(Cl)c(Cl)cc1Oc1ccc(OC(F)(F)F)cc1 [Compound I-1, 5-(4,5-Dichloro-2-(4-(trifluoromethoxy)phenoxy)benzamido)pyrimidine 1-oxide]
pIC50 (Nav1.8 ion channel): 7.85 | AUC(0-t) [1]: 17300 ng·h/mL | Cmax [1]: 7370 ng/mL | Tmax [1]: 0.25 h | half-life [1]: 2.74 h | Mechanical pain threshold (Mean ± SD), base value before modeling ([2]; 100 mpk group): 13.6 ± 1.7 g | Mechanical pain threshold (Mean ± SD), 1 h after administration ([2]; 100 mpk oral intragastric): 11.0 ± 4.0 g | Mechanical pain threshold (Mean ± SD), 3 h after administration ([2]; 100 mpk oral intragastric): 11.1 ± 3.7 g | Mechanical pain threshold (Mean ± SD), base value before modeling (incision pain model rats; 100 mpk group): 12.6 ± 1.7 g | Mechanical pain threshold (Mean ± SD), 1 h after administration (incision pain model rats; 100 mpk oral intragastric): 12.5 ± 1.9 g | Mechanical pain threshold (Mean ± SD), 3 h after administration (incision pain model rats; 100 mpk oral intragastric): 11.4 ± 2.0 g | Mechanical pain threshold (Mean ± SD), 6 h after administration (incision pain model rats; 100 mpk oral intragastric): 8.4 ± 1.2 g

O=C(Nc1ccc[n+]([O-])c1)c1c(Oc2ccc(F)c3c2OC(F)(F)O3)cc(C(F)(F)F)c(Cl)c1F [Compound I-11, 3-(3-Chloro-2-fluoro-6-((2,2,7-trifluorobenzo[d][1,3]dioxol-4-yl)oxy)-4-trifluoromethyl-benzamido)pyridine 1-oxide]
pIC50 (Nav1.8 ion channel): 9.19 | AUC(0-t) [1]: 9070 ng·h/mL | Cmax [1]: 2240 ng/mL | Tmax [1]: 1 h | half-life [1]: 2.18 h | Mechanical pain threshold (Mean ± SD), base value before modeling ([2]; 100 mpk group): 13.0 ± 2.8 g | Mechanical pain threshold (Mean ± SD), 3 h after administration ([2]; 100 mpk oral intragastric): 13.6 ± 2.0 g | Mechanical pain threshold (Mean ± SD), 6 h after administration ([2]; 100 mpk oral intragastric): 12.1 ± 2.5 g

O=C(Nc1ccc[n+]([O-])c1)c1cc(Cl)c(C(F)(F)F)cc1Oc1ccc(F)c2c1OC(F)(F)O2 [Compound I-23, 3-(5-chloro-2-((2,2,7-trifluorobenzo[d][1,3]dioxol-4-yl)oxy)-4-(trifluoromethyl)benzamido)pyridine 1-oxide]
pIC50 (Nav1.8 ion channel): 8.54 | AUC(0-t) [1]: 37900 ng·h/mL | Cmax [1]: 3450 ng/mL | Tmax [1]: 1 h | half-life [1]: 2.53 h

[2H]C([2H])([2H])Oc1cc(OC(F)(F)F)ccc1Oc1cc(Cl)c(Cl)cc1C(=O)Nc1cnc[n+]([O-])c1 [Compound I-24, 5-(4,5-dichloro-2-(2-(methoxy-d3)-4-(trifluoromethoxy)phenoxy)benzamido)pyrimidine 1-oxide]
pIC50 (Nav1.8 ion channel): 8.66 | AUC(0-t) [1]: 4560 ng·h/mL | Cmax [1]: 1870 ng/mL | Tmax [1]: 0.5 h | half-life [1]: 1.78 h

CC(C)C[C@H](CN)CC(=O)O [Pregabalin, reference compound]
Mechanical pain threshold (Mean ± SD), base value before modeling ([2]; 30 mpk group): 13.6 ± 2.7 g | Mechanical pain threshold (Mean ± SD), 1 h after administration ([2]; 30 mpk oral intragastric): 13.8 ± 2.3 g | Mechanical pain threshold (Mean ± SD), 3 h after administration ([2]; 30 mpk oral intragastric): 12.3 ± 2.9 g | Mechanical pain threshold (Mean ± SD), 6 h after administration ([2]; 30 mpk oral intragastric): 12.1 ± 2.3 g | Mechanical pain threshold (Mean ± SD), base value before modeling (incision pain model rats; 30 mpk group): 12.7 ± 1.7 g | Mechanical pain threshold (Mean ± SD), 1 h after administration (incision pain model rats; 30 mpk oral intragastric): 12.4 ± 1.9 g | Mechanical pain threshold (Mean ± SD), 3 h after administration (incision pain model rats; 30 mpk oral intragastric): 11.6 ± 1.1 g | Mechanical pain threshold (Mean ± SD), 6 h after administration (incision pain model rats; 30 mpk oral intragastric): 11.3 ± 1.4 g

Reference: patent US20260022100A1, “NAV1.8 INHIBITOR” (Wuhan Humanwell Innovative Drug Research and Development …, priority 2022, published 2026)
